The source of these data is EP0394553A2, “Use of fluorine containing pyridone carboxylic acid derivatives for preparing a medicament for the treatment of HIV infections” (DAIICHI PHARMACEUTICAL CO., LTD., priority 1989, dated 1990).

The subject of this series is CEM cells. As to the kind of experiment: Cytotoxicity in uninfected CEM cells (trypan blue staining). To be noted: at concentrations not exceeding 10 mcg/ml. Here is the method:
Human T cell-derived, T4 antigen-positive CEM cells (provided by the Institut Pasteur, France) were used as host cells of HIV. Cell culture was carried out in a carbon dioxide-containing atmosphere in an incubator maintained at 37°C according to a conventional method [cf. […] The culture supernatant (5×10⁶ TCID₅₀/ml) obtained by subjecting CEM cells to HIV (LAV 1) infection and stored at -70°C was used as the HIV source.
The cell culture medium (10 ml) placed in a plastic culture flask (25 cm²) was inoculated with CEM cells to a cell density of 2.5×10⁵ cells/ml and incubation was performed for 3 days. Then, the culture was transferred to a 15-ml plastic centrifuge tube and centrifuged at 1,000 revolutions per minute for 5 minutes for medium removal. A fresh portion of the medium was added to the cells, the cell density being adjusted to 5.0×10⁵ cells/ml. The following mixture (1.0 ml) containing the cell suspension prepared in the above manner was incubated in a 24-well plastic culture plate for 4 days:
The cells in each well were then suspended uniformly in the medium by pipetting and a 0.5-ml portion of the suspension was separated.
A fresh 2-ml portion of the test substance-free medium was added to the remaining cell suspension (0.5 ml) and, after a further 3-day incubation, a cell suspension was produced in the same manner and a 0.5-ml portion thereof was removed.
The cell suspensions collected in the above manner were subjected to viable cell count and viable cell percentage determinations by trypan blue staining.
With `CC1COc2c(N3CCN(C)CC3)c(F)cc3c(=O)c(C(=O)O)cn1c23` (racemic) [OFLX, (±)-9-fluoro-3-methyl-10-(4-methyl-1-piperazinyl)-7-oxo-2,3-dihydro-7H-pyrido[1,2,3-de][1,4]benzoxazine-6-carboxylic acid], the cytotoxicity result is “no cytotoxicity”. In the case of `C[C@H]1COc2c(N3CCN(C)CC3)c(F)cc3c(=O)c(C(=O)O)cn1c23` [DR-3355, (-)-(S)-9-fluoro-2,3-dihydro-3-methyl-10-(4-methyl-1-piperazinyl)-7-oxo-7H-pyrido[1,2,3-de][1,4]benzoxazine-6-carboxylic acid hemihydrate] it was “no cytotoxicity”. In the case of `CCn1cc(C(=O)O)c(=O)c2cc(F)c(N3CCNCC3)cc21` [NFLX, 1-ethyl-6-fluoro-1,4-dihydro-4-oxo-7-(1-piperazinyl)-3-quinolinecarboxylic acid] it was “no cytotoxicity”.
